Tests used:
[1] = test system: DCAMKL-1; assay: siRNA knockdown of DCAMKL-1 in BxPC3 pancreatic cancer cells, real-time RT-PCR; assay type: cell-based, human
Experimental: Cell Culture: AsPC-1 and BxPC3 human pancreatic adenocarcinoma cell lines were obtained from the American Type Culture Collection and grown in Dulbecco's modified Eagle medium (DMEM) supplemented with 10% fetal bovine serum and 100 U/mL penicillin-streptomycin in a humidified chamber at 37° C. with 5% CO2.
Silencer RNA: DCAMKL-1 small interfering RNA (siRNA) (si-DCAMKL-1) sequence targeting the coding region of DCAMKL-1 (accession No. NM_004734; SEQ ID NO:1) ([…]tt (SEQ ID NO:3)) and scrambled siRNAs (si-Scr) not matching any of the human genes were obtained (Ambion Inc, Austin, Tex.) and transfected using siPORT™ NeoFX™ (Ambion, Inc).
Real-time Reverse Transcription-Polymerase Chain Reaction Analyses: Total RNA isolated from human pancreatic cancer cells or cells sorted from normal mouse pancreas were subjected to reverse transcription with Superscript II RNase H-Reverse Transcriptase and random hexanucleotide primers (Invitrogen, Carlsbad, Calif.). […] The changes in mRNA were expressed as fold change relative to control with ±SEM value.
miRNA Analysis: total RNA isolated from human pancreatic cancer cell lines or cells sorted from normal mouse pancreas was subjected to reverse transcription with Superscript II RNase H-Reverse Transcriptase and random hexanucleotide primers (Invitrogen). […] The changes in pri-miRNA were expressed as fold change relative to control with ±SEM values.

[2] = test system: PICSC tumor xenografts; assay: PICSC generated isograft tumor growth in mice; assay type: in vivo; settings: siRNA injected from day 15, 5 times at an interval of 3 days
Experimental: To determine whether targeted DCAMKL-1 downregulation and/or Notch inhibition affected […] generated isograft tumor growth, mice were treated with siRNA to DCAMKL-1 or the Notch inhibitor DAPT. After the tumors were allowed to develop (15 days), siRNA was injected a total of 5 times at an interval of 3 days as described earlier.

Sequence of DCAMKL-1 (O15075 other isoform, or with tags, fused parts or gaps): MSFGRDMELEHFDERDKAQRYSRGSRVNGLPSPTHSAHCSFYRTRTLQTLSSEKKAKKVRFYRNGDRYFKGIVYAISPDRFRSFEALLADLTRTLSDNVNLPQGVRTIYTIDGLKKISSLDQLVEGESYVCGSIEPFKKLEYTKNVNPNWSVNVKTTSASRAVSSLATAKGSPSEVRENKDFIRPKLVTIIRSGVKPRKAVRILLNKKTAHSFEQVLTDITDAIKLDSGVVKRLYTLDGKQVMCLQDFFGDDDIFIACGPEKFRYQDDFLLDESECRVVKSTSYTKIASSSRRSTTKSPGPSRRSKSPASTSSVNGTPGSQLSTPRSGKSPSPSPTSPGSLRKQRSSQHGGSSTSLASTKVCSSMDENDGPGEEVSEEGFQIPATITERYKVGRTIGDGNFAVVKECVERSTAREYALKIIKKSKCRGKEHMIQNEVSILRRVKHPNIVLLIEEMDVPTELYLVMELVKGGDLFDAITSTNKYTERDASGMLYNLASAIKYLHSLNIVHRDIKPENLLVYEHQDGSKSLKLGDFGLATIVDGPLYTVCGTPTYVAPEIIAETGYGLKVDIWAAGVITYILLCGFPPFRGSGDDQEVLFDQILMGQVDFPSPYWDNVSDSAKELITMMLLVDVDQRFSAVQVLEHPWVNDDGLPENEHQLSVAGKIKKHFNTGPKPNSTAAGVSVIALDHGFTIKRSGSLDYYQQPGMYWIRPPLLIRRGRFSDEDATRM

si-DCAMKL-1: siRNA targeting the coding region of DCAMKL-1 (NM_004734), sequence GGGAGUGAGAACAAUCUAC (SEQ ID NO:3) (chemistry not given here; listed as Homo sapiens)
increase in pri-let-7a miRNA ([1]; compared to control and siSCR): 3 fold | Notch1 mRNA ([1]; compared to siSCR or control): significant decrease | isograft tumor growth [2]: growth arrest

Reference: patent US8936941B2, “Compositions useful for cancer detection and treatment, a cancer stem cell model, and methods of production and use thereof” (priority 2008, dated 2015)
